Test results: patent US20210369677A1, “SMALL MOLECULE ACTIVATORS OF POLYCYSTIN-2 (PKD2) AND USES THEREOF” (Northwestern University, priority 2020, published 2021)

Biological target: T1, human PKD2 channel proteins (WT or C331S) (Homo sapiens, UniProt Q13563)
T1 construct: purified the C331S variant of polycystin-2 (residues 53-792) protein in amphipols; made in house
Experiment: Thermal stability assay (FSEC) of purified PKD2 channel proteins
Details: 10 mM GSH
Experimental: Thermal stability assay. Approximately 9 μg of purified human PKD2 channel proteins (WT or C331S) in 30 μl buffer composed of 20 mM HEPES 150 mM NaCl, 2 mM CaCl2), 0.5 mM TCEP and 0.5 mM DDM (n-Dodecyl β-D-maltoside), at pH 7.4, were incubated at 4° C.-90° C. (4° C., room temperature, 30° C., 35.2° C., 39.3° C., 44.9° C., 49° C., 54° C., 60° C., 65.5° C., 69.4° C., 75° C., 79.3° C., 84° C., and 90° C.) for 10 minutes in a thermal cycler. To reduce the C331-C344 disulfide bond in the PKD2 channel, 10 mM GSH was added to all the buffers during purification and thermal stability assay. The treated channel samples were then diluted 10 times with the same buffer followed by centrifugation for 30 min at 40,000 rpm. 30 μl of each cleared channel samples were separated on an analytical size exclusion column (Superose™ 6 5/150 GL, GE Healthcare) at 0.3 ml/min flow rate. Proteins were detected by Tryptophan fluorescence. The FSEC-based thermostability experiments were performed in triplicates for each temperature point. The integrated area of the channel tetramer peak at different temperature points is normalized to that at 4° C. to generate the thermal stability plot.
We tested the thermal stability of PKD2 and the C331S variant in the presence or absence of NS1643. (See FIG. 33). We also performed Rosetta modeling. (See FIG. 35).

T1 sequence (Q13563 53-792 C331S): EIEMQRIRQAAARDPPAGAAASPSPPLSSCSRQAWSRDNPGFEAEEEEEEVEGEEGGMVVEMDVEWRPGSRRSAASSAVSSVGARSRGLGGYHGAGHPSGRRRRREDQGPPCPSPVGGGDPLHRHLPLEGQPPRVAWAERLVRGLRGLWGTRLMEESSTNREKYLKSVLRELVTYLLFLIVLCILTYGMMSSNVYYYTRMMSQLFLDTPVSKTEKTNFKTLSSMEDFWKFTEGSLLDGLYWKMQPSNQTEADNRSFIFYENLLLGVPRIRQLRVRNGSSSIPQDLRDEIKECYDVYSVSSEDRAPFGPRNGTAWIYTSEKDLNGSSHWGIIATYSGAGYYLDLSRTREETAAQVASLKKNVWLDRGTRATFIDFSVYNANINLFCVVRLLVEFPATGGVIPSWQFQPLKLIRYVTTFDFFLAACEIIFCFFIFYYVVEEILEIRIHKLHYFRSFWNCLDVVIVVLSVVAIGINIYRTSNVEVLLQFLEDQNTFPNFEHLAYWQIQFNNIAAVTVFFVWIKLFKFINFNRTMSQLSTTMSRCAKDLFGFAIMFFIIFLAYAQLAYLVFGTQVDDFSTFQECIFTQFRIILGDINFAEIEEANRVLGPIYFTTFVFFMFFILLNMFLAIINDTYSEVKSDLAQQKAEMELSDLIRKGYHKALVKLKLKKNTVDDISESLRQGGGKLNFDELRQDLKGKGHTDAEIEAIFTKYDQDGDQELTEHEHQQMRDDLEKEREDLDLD

Thermal denaturation of polycystin-2 channel protein under reducing conditions: denaturing at lower temperatures
Compound: N[C@@H](CCC(=O)N[C@@H](CS)C(=O)NCC(=O)O)C(=O)O [GSH, reduced glutathione]
